# What was measured:
# Format in all cases: in vivo
# [1] = tested on: purple nutsedge (Cyperus rotundus); assay: Test B pre-/postemergence; design: key: 0 is no effect; 10 is complete control
# How it was run: (§1)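 Response scores run from 0, meaning no effect, to 10, meaning complete control, assigned by eye relative to controls twelve to sixteen days after spraying. Treatment was both preemergence on planted seed and postemergence on plants at the 1- to 4-leaf stage.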
# [2] = tested on: crabgrass (Digitaria sanguinalis); assay: Test B pre-/postemergence; design: key: 0 is no effect; 10 is complete control
# How it was run: as §1
# [3] = tested on: wheat (Triticum aestivum); assay: Test B pre-/postemergence; design: key: 0 is no effect; 10 is complete control
# How it was run: as §1
# [4] = tested on: giant foxtail (Setaria faberii); assay: Test B pre-/postemergence; design: key: 0 is no effect; 10 is complete control
# How it was run: as §1
# rape (Brassica napus) = assay: Test B pre-/postemergence; design: key: 0 is no effect; 10 is complete control
# How it was run: as §1
# soybean (Glycine max) = assay: Test B pre-/postemergence; design: key: 0 is no effect; 10 is complete control
# How it was run: as §1
# [5] = tested on: velvetleaf (Abutilon theophrasti); assay: Test B pre-/postemergence; design: key: 0 is no effect; 10 is complete control
# How it was run: as §1
# corn (Zea mays) = assay: Test B pre-/postemergence; design: key: 0 is no effect; 10 is complete control
# How it was run: as §1
# wild oat (Avena fatua) = assay: Test B pre-/postemergence; design: key: 0 is no effect; 10 is complete control
# How it was run: as §1
# [6] = tested on: sugar beet (Beta vulgaris); assay: Test B pre-/postemergence; design: key: 0 is no effect; 10 is complete control
# How it was run: as §1
# [7] = tested on: bedstraw (Galium aparine); assay: Test B pre-/postemergence; design: key: 0 is no effect; 10 is complete control
# How it was run: as §1
# rice (Oryza sativa) = assay: Test B flood test
# How it was run: (§2)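 Each value is a visual injury score relative to controls, with 10 meaning complete control and 0 no effect. Evaluation took place twelve to sixteen days after the 2-leaf-stage plants were treated and kept in the greenhouse.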
# [8] = tested on: duck salad (Heteranthera limosa); assay: Test B flood test
# How it was run: as §2
# [9] = tested on: bamyardgrass (Echinochloa crus-galli); assay: Test B flood test
# How it was run: as §2
# [10] = tested on: smallflower flatsedge (Cyperus difformis); assay: Test B flood test
# How it was run: as §2
# [11] = Rate 62 g/ha, Postemergence (flood test)
# [12] = Rate 125 g/ha, Postemergence, flood test
# [13] = Rate 250 g/ha, Postemergence (flood test species)
# [14] = Rate 500 g/ha, Postemergence (flood test species)
compound,measurement,setting,value
Cc1cnc(-c2ccc(C(F)(F)F)cc2)nc1Cn1ccc(C(F)(F)C(F)(F)F)n1 [Compound 14],"Plant response rating, Nutsedge","[1]; Rate 62 g/ha, Postemergence",0
same,Nutsedge plant response rating,"[1]; Rate 62 g/ha, Preemergence",0
same,"Plant response rating, Nutsedge","[1]; Rate 125 g/ha, Postemergence",0
same,Nutsedge plant response rating,"[1]; Rate 125 g/ha, Preemergence",0
same,"Plant response rating, Nutsedge","[1]; Rate 250 g/ha, Postemergence",0
same,"Plant response rating, Nutsedge","[1]; Rate 250 g/ha, Preemergence",0
same,"Plant response rating, Nutsedge","[1]; Rate 500 g/ha, Postemergence",0
same,"Plant response rating, Nutsedge","[1]; Rate 500 g/ha, Preemergence",0
same,"Plant response rating, Crabgrass","[2]; Rate 62 g/ha, Postemergence",2
same,Crabgrass plant response rating,"[2]; Rate 62 g/ha, Preemergence",0
same,"Plant response rating, Crabgrass","[2]; Rate 125 g/ha, Postemergence",2
same,Crabgrass plant response rating,"[2]; Rate 125 g/ha, Preemergence",1
same,"Plant response rating, Crabgrass","[2]; Rate 250 g/ha, Postemergence",2
same,"Plant response rating, Crabgrass","[2]; Rate 250 g/ha, Preemergence",7
same,"Plant response rating, Crabgrass","[2]; Rate 500 g/ha, Postemergence",4
same,"Plant response rating, Crabgrass","[2]; Rate 500 g/ha, Preemergence",8
same,"Plant response rating, Wheat","[3]; Rate 62 g/ha, Postemergence",0
same,Wheat plant response rating,"[3]; Rate 62 g/ha, Preemergence",0
same,"Plant response rating, Wheat","[3]; Rate 125 g/ha, Postemergence",0
same,Wheat plant response rating,"[3]; Rate 125 g/ha, Preemergence",0
same,"Plant response rating, Wheat","[3]; Rate 250 g/ha, Postemergence",2
same,"Plant response rating, Wheat","[3]; Rate 250 g/ha, Preemergence",0
same,"Plant response rating, Wheat","[3]; Rate 500 g/ha, Postemergence",3
same,"Plant response rating, Wheat","[3]; Rate 500 g/ha, Preemergence",0
same,"Plant response rating, Giant foxtail","[4]; Rate 62 g/ha, Postemergence",1
same,Giant foxtail plant response rating,"[4]; Rate 62 g/ha, Preemergence",0
same,"Plant response rating, Giant foxtail","[4]; Rate 125 g/ha, Postemergence",1
same,Giant foxtail plant response rating,"[4]; Rate 125 g/ha, Preemergence",4
same,"Plant response rating, Giant foxtail","[4]; Rate 250 g/ha, Postemergence",1
same,"Plant response rating, Giant foxtail","[4]; Rate 250 g/ha, Preemergence",7
same,"Plant response rating, Giant foxtail","[4]; Rate 500 g/ha, Postemergence",3
same,"Plant response rating, Giant foxtail","[4]; Rate 500 g/ha, Preemergence",9
same,"Plant response rating, Rape","rape (Brassica napus); Rate 62 g/ha, Postemergence",5
same,Rape plant response rating,"rape (Brassica napus); Rate 62 g/ha, Preemergence",0
same,"Plant response rating, Rape","rape (Brassica napus); Rate 125 g/ha, Postemergence",6
same,Rape plant response rating,"rape (Brassica napus); Rate 125 g/ha, Preemergence",1
same,"Plant response rating, Rape","rape (Brassica napus); Rate 250 g/ha, Postemergence",6
same,"Plant response rating, Rape","rape (Brassica napus); Rate 250 g/ha, Preemergence",2
same,"Plant response rating, Rape","rape (Brassica napus); Rate 500 g/ha, Postemergence",7
same,"Plant response rating, Rape","rape (Brassica napus); Rate 500 g/ha, Preemergence",8
same,"Plant response rating, Soybean","soybean (Glycine max); Rate 62 g/ha, Postemergence",4
same,Soybean plant response rating,"soybean (Glycine max); Rate 62 g/ha, Preemergence",0
same,"Plant response rating, Soybean","soybean (Glycine max); Rate 125 g/ha, Postemergence",4
same,Soybean plant response rating,"soybean (Glycine max); Rate 125 g/ha, Preemergence",0
same,"Plant response rating, Soybean","soybean (Glycine max); Rate 250 g/ha, Postemergence",5
same,"Plant response rating, Soybean","soybean (Glycine max); Rate 250 g/ha, Preemergence",0
same,"Plant response rating, Soybean","soybean (Glycine max); Rate 500 g/ha, Postemergence",5
same,"Plant response rating, Soybean","soybean (Glycine max); Rate 500 g/ha, Preemergence",1
same,"Plant response rating, Velvetleaf","[5]; Rate 62 g/ha, Postemergence",3
same,Velvetleaf plant response rating,"[5]; Rate 62 g/ha, Preemergence",0
same,"Plant response rating, Velvetleaf","[5]; Rate 125 g/ha, Postemergence",4
same,Velvetleaf plant response rating,"[5]; Rate 125 g/ha, Preemergence",0
same,"Plant response rating, Velvetleaf","[5]; Rate 250 g/ha, Postemergence",4
same,"Plant response rating, Velvetleaf","[5]; Rate 250 g/ha, Preemergence",1
same,"Plant response rating, Velvetleaf","[5]; Rate 500 g/ha, Postemergence",4
same,"Plant response rating, Velvetleaf","[5]; Rate 500 g/ha, Preemergence",7
same,"Plant response rating, Corn","corn (Zea mays); Rate 62 g/ha, Postemergence",2
same,Corn plant response rating,"corn (Zea mays); Rate 62 g/ha, Preemergence",0
same,"Plant response rating, Corn","corn (Zea mays); Rate 125 g/ha, Postemergence",2
same,Corn plant response rating,"corn (Zea mays); Rate 125 g/ha, Preemergence",0
same,"Plant response rating, Corn","corn (Zea mays); Rate 250 g/ha, Postemergence",3
same,"Plant response rating, Corn","corn (Zea mays); Rate 250 g/ha, Preemergence",0
same,"Plant response rating, Corn","corn (Zea mays); Rate 500 g/ha, Postemergence",3
same,"Plant response rating, Corn","corn (Zea mays); Rate 500 g/ha, Preemergence",3
same,"Plant response rating, Wild oats","wild oat (Avena fatua); Rate 62 g/ha, Postemergence",0
same,Wild oats plant response rating,"wild oat (Avena fatua); Rate 62 g/ha, Preemergence",0
same,"Plant response rating, Wild oats","wild oat (Avena fatua); Rate 125 g/ha, Postemergence",1
same,Wild oats plant response rating,"wild oat (Avena fatua); Rate 125 g/ha, Preemergence",0
same,"Plant response rating, Wild oats","wild oat (Avena fatua); Rate 250 g/ha, Postemergence",3
same,"Plant response rating, Wild oats","wild oat (Avena fatua); Rate 250 g/ha, Preemergence",0
same,"Plant response rating, Wild oats","wild oat (Avena fatua); Rate 500 g/ha, Postemergence",3
same,"Plant response rating, Wild oats","wild oat (Avena fatua); Rate 500 g/ha, Preemergence",2
same,"Plant response rating, Sugarbeets","[6]; Rate 62 g/ha, Postemergence",7
same,Sugarbeets plant response rating,"[6]; Rate 62 g/ha, Preemergence",3
same,"Plant response rating, Sugarbeets","[6]; Rate 125 g/ha, Postemergence",8
same,Sugarbeets plant response rating,"[6]; Rate 125 g/ha, Preemergence",5
same,"Plant response rating, Sugarbeets","[6]; Rate 250 g/ha, Postemergence",8
same,"Plant response rating, Sugarbeets","[6]; Rate 250 g/ha, Preemergence",6
same,"Plant response rating, Sugarbeets","[6]; Rate 500 g/ha, Postemergence",9
same,"Plant response rating, Sugarbeets","[6]; Rate 500 g/ha, Preemergence",9
same,"Plant response rating, Bedstraw","[7]; Rate 62 g/ha, Postemergence",4
same,Bedstraw plant response rating,"[7]; Rate 62 g/ha, Preemergence",0
same,"Plant response rating, Bedstraw","[7]; Rate 125 g/ha, Postemergence",4
same,Bedstraw plant response rating,"[7]; Rate 125 g/ha, Preemergence",0
same,"Plant response rating, Bedstraw","[7]; Rate 250 g/ha, Postemergence",8
same,"Plant response rating, Bedstraw","[7]; Rate 250 g/ha, Preemergence",0
same,"Plant response rating, Bedstraw","[7]; Rate 500 g/ha, Postemergence",10
same,"Plant response rating, Bedstraw","[7]; Rate 500 g/ha, Preemergence",2
same,"Plant response rating, Rice",rice (Oryza sativa); [11],4
same,"Plant response rating, Rice",rice (Oryza sativa); [12],4
same,"Plant response rating, Rice",rice (Oryza sativa); [13],5
same,"Plant response rating, Rice",rice (Oryza sativa); [14],5
same,"Plant response rating, Ducksalad",[8]; [11],2
same,"Plant response rating, Ducksalad",[8]; [12],2
same,"Plant response rating, Ducksalad",[8]; [13],2
same,"Plant response rating, Ducksalad",[8]; [14],3
same,"Plant response rating, Barnyardgrass",[9]; [11],4
same,"Plant response rating, Barnyardgrass",[9]; [12],5
same,"Plant response rating, Barnyardgrass",[9]; [13],5
same,"Plant response rating, Barnyardgrass",[9]; [14],6
same,"Plant response rating, S. Flatsedge",[10]; [11],8
same,"Plant response rating, S. Flatsedge",[10]; [12],8
same,"Plant response rating, S. Flatsedge",[10]; [13],8
same,"Plant response rating, S. Flatsedge",[10]; [14],9
